Here are results for eight compounds from ChEMBL document CHEMBL2331400, “Structure-based design and evaluation of naphthalene diimide G-quadruplex ligands as telomere targeting agents in pancreatic cancer cells” (J Med Chem, 2013).

Structures are written as SMILES. Active and inactive are the calls of the source. No cut-off for these calls is given here.

The test system of series [1] is MIA PaCa-2. Description: Inhibition of telomerase activity in human MIAPaCa2 cells assessed as telomere elongation at 25 to 50 nM by TRAP-LIG assay. Type of series: cell-based.
Series [2] relates to WI-38. Nature of the series: Cytotoxicity against human WI38 cells assessed as growth inhibition after 96 hrs by SRB assay. Type of series: cell-based. As to conditions: WI-38, 96 h.
For series [3], the system named is unidentified. Nature of the series: Stabilization of HSP90a promoter sequence 5'-FAM-d(GGGCCAAAGGGAAGGGGTGGG)-TAMRA-3' (unknown origin) assessed as melting temperature at 1 uM by FRET assay.
Series [4] is filed under the species Homo sapiens. Nature of the series: Stabilization of human telomeric G-quadruplex DNA sequence 5'-FAM-d(GGG[TTAGGG]3)-TAMRA-3' assessed as melting temperature at 1 uM by FRET assay.
Series [5] deals with unidentified. Description: Stabilization of HSP90b promoter sequence 5'-FAM-d(GGGCGGGCCAAAGGGAAGGGG)-TAMRA-3' (unknown origin) assessed as melting temperature at 1 uM by FRET assay.
The test system of series [6] is unidentified. Description: Stabilization of duplex DNA T-loop (unknown origin) 5'-FAM-dTATAGCTATA-HEG-TATAGCTATA-TAMRA-3' assessed as melting temperature at 1 uM by FRET assay.
In series [7] the test system is MIA PaCa-2. Nature of the series: Induction of senescence in human MIAPaCa2 cells at 25 to 50 nM after 7 days by beta-galactosidase assay relative to vehicle-treated control. Type of series: functional, cell-based.
For series [8], the system named is MIA PaCa-2. Description: Cytotoxicity against human MIAPaCa2 cells assessed as growth inhibition after 96 hrs by SRB assay. As to conditions: MIA PaCa-2, 96 h. Type of series: functional, cell-based.
Series [9] deals with MIA PaCa-2. Nature of the series: Inhibition of telomerase activity in human MIAPaCa2 cells assessed as telomere elongation up to 10 uM after 7 days by TRAP-LIG assay. Type of series: cell-based.
Series [10] deals with MCF7. Nature of the series: Cytotoxicity against human MCF7 cells assessed as growth inhibition after 96 hrs by SRB assay. As to conditions: MCF7, 96 h. Type of series: functional, cell-based.
The subject of series [11] is A549. Nature of the series: Cytotoxicity against human A549 cells assessed as growth inhibition after 96 hrs by SRB assay. Type of series: functional, cell-based. As to conditions: A549, 96 h. (In general: In SRB staining, fixed cells bind dye roughly in proportion to their protein.)
For series [12], the system named is 786-0. Nature of the series: Cytotoxicity against human 786-0 cells assessed as growth inhibition after 96 hrs by SRB assay. Type of series: functional, cell-based. As to conditions: 786-0, 96 h.
Series [13] in a line: Cytotoxicity against human RCC4 cells assessed as growth inhibition after 96 hrs by SRB assay. As to conditions: RCC4, 96 h. Type of series: functional, cell-based.
Series [14] is described as follows: Selectivity ratio of IC50 for human WI-38 cells to IC50 for human 786-0 cells. Type of series: ADME, cell-based. As to conditions: WI-38 cells versus 786-0 cells, read-out: Ratio IC50.
The test system of series [15] is MIA PaCa-2. Description: Induction of senescence in human MIAPaCa2 cells at 3.3 to 6.6 nM after 7 days by beta-galactosidase assay relative to vehicle-treated control. Type of series: functional.

For `CN1CCN(CCCNc2cc3c4c(c(NCCCN5CCN(C)CC5)cc5c4c2C(=O)N(CCCN2CCN(C)CC2)C5=O)C(=O)N(CCCN2CCN(C)CC2)C3=O)CC1`, the inhibition result in series [1] was “inactive”. For the same compound, the IC50 (commonly the concentration needed to halve the response being measured) in series [2] was found to be 9 µM. The thermal shift (ΔTm) (in general, the shift of the melting midpoint relative to a reference) in series [3] was 36.3 °C; in series [4], 28.3 °C; in series [5], 32 °C; in series [6], 1.3 °C. The result in series [7] was Active.
Regarding `COCCCN1C(=O)c2cc(NCCCN3CCN(C)CC3)c3c4c(cc(NCCCN5CCN(C)CC5)c(c24)C1=O)C(=O)N(CCCOC)C3=O`, the half-maximal inhibitory concentration (IC50) in [2] turned out to be 3.32 µM; in series [8] it was 2790 nM; in [10] it was 5620 nM; in series [11], 2540 nM; in series [12] it was 7170 nM; in series [13], 10.5 µM. The shift in melting temperature (ΔTm) worked out at 29 °C in series [3], 0.5 °C in series [4], 23.8 °C in series [5] and 0 °C in series [6]. Besides, the inhibition entry in series [9] was “inactive”.
Consider `CN1CCN(CCCNc2cc3c4c(c(NCCCN5CCN(C)CC5)cc5c4c2C(=O)N(CCN2CCOCC2)C5=O)C(=O)N(CCN2CCOCC2)C3=O)CC1`, for which the IC50 in series [2] was determined as 0.61 µM; in series [8], 40 nM; in series [10], 170 nM; in [11] it was 1550 nM; in series [12], 630 nM; in series [13], 1.75 µM. Besides, the ΔTm in [3] amounted to 33.9 °C; in series [4] it was 27 °C; in series [5], 29.1 °C; in [6] it was 0.8 °C.
For `CN1CCN(CCNc2cc3c4c(c(NCCN5CCN(C)CC5)cc5c4c2C(=O)N(CCN2CCOCC2)C5=O)C(=O)N(CCN2CCOCC2)C3=O)CC1`, the half-inhibitory concentration (IC50) in series [2] amounted to 1.17 µM; in [10], 180 nM; in series [11] it was 4930 nM; in series [12] it was 1480 nM; in [13] it was 5.1 µM. For the same compound, the ΔTm turned out to be 30.6 °C in series [3], 24.7 °C in [4], 27.6 °C in series [5] and 1.7 °C in series [6].
Take `CN1CCN(CCCNc2cc3c4c(c(NCCCN5CCN(C)CC5)cc5c4c2C(=O)N(CC2CCOCC2)C5=O)C(=O)N(CC2CCOCC2)C3=O)CC1`: the concentration for half-maximal inhibition (IC50) in [2] worked out at 12.7 µM; in series [8] it was 2500 nM; in [10] it was 3120 nM; in [11], 2920 nM; in series [12], 1200 nM; in series [13], 8.38 µM. Besides, the thermal shift (ΔTm) in series [3] was determined as 0.7 °C; in series [4] it was 0.1 °C; in series [5], 0.8 °C; in [6], 0.2 °C. The selectivity ratio in series [14] turned out to be 10.
As to `CN1CCN(CCCNc2cc3c4c(c(NCCCN5CCN(C)CC5)cc5c4c2C(=O)N(Cc2ccco2)C5=O)C(=O)N(Cc2ccco2)C3=O)CC1`, the half-maximal inhibitory concentration (IC50) in series [2] worked out at 6.84 µM; in series [8], 2830 nM; in series [10], 2610 nM; in series [11], 2410 nM; in series [12] it was 1100 nM; in [13], 3.11 µM. Also, the ΔTm in [3] turned out to be 0.9 °C; in [4] it was 0.2 °C; in [5], 1.1 °C; in [6], 0.3 °C. Besides, in series [15], the Activity was 50%.
For the compound `CN1CCN(CCCNc2cc3c4c(c(NCCCN5CCN(C)CC5)cc5c4c2C(=O)N(CC2CCCO2)C5=O)C(=O)N(CC2CCCO2)C3=O)CC1` (racemic), the IC50 is > 10 µM in [2]; 5650 nM in [8]; > 10000 nM in series [10]; 5570 nM in series [11]; > 10000 nM in series [12]; > 10 µM in series [13]. Also, the ΔTm in [3] turned out to be 27.1 °C; in series [4], 22.7 °C; in series [5], 21 °C; in [6] it was 0.2 °C. Further, the inhibition result in [9] was “inactive”.
Regarding `CN1CCN(CCNc2cc3c4c(c(NCCN5CCN(C)CC5)cc5c4c2C(=O)N(CCCN2CCOCC2)C5=O)C(=O)N(CCCN2CCOCC2)C3=O)CC1`, the concentration for half-maximal inhibition (IC50) is 2.46 µM in [2]; 10 nM in [8]; 30 nM in [10]; < 10 nM in series [11]; 0.28 µM in series [13]. For the same compound, the thermal shift (ΔTm) was 31.9 °C in series [3], 27.8 °C in series [4], 31.1 °C in series [5] and 8.1 °C in series [6]. Further, the inhibition result in series [9] was “inactive”.
